According to US7683069B2, “3-substituted-4-pyrimidone derivatives” (Mitsubishi Tanabe Pharma Corporation, priority 2002, dated 2010):

Target: T1, bovine cerebral TPK1 (Bos taurus, UniProt A0A3Q1MT31)
T1 construct: bovine cerebral TPK1; from tissue; host or cells: bovine brain (cerebrum)
Experiment: Inhibitory activity against P-GS1 phosphorylation by bovine cerebral TPK1
Type: biochemical
Conditions: 41.7 μM [γ-32P] ATP, 25° C., 2 hours, pH 6.5
Protocol: Inhibitory Activity of the Medicament of the Present Invention Against P-GS1 Phosphorylation by Bovine Cerebral TPK1
A mixture containing 100 mM MES-sodium hydroxide (pH 6.5), 1 mM magnesium acetate, 0.5 mM EGTA, 5 mM β-mercaptoethanol, 0.02% Tween 20, 10% glycerol, 12 μg/ml P-GS1, 41.7 μM [γ-^32P] ATP (68 kBq/ml), bovine cerebral TPK1 and a compound shown in Table (a final mixture contained 1.7% DMSO deriving from a solution of a test compound prepared in the presence of 10% DMSO) was used as a reaction system. The phosphorylation was started by adding ATP, and the reaction was conducted at 25° C. for 2 hours, and then stopped by adding 21% perchloric-acid on ice cooling. The reaction mixture was centrifuged at 12,000 rpm for 5 minutes and adsorbed on P81 paper (Whatmann), and then the paper was washed four times with 75 mM phosphoric acid, three times with water and once with acetone. The paper was dried, and the residual radioactivity was measured using a liquid scintillation counter.

T1 sequence (A0A3Q1MT31 1-419): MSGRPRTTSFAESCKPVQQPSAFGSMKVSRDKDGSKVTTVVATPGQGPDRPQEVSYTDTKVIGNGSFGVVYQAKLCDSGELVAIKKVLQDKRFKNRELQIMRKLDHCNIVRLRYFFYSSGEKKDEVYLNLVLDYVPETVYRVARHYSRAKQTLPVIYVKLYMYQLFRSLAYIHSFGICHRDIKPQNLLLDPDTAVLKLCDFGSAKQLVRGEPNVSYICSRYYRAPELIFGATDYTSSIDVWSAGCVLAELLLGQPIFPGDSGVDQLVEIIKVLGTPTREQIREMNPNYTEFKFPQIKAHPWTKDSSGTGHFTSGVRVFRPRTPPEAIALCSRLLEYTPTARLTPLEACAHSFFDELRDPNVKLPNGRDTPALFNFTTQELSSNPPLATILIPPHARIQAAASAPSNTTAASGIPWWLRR

Question: How did the IC50 turn out when Cn1c(N2CCC=C(c3ccccc3)C2)nc(-c2ccncc2)cc1=O [Compound A001, 2-(5-phenyl-3,6-dihydro-2H-pyridin-1-yl)-3-methyl-6-pyridin-4-yl-3H-pyrimidin-4-one] was run?
Answer: 7 nM

Question: Cn1c(N2CCC=C(c3ccccc3F)C2)nc(-c2ccncc2)cc1=O [Compound A002, 2-[5-(2-fluorophenyl)-3,6-dihydro-2H-pyridin-1-yl]-3-methyl-6-pyridin-4-yl-3H-pyrimidin-4-one] was tested. Which IC50 did it give?
Answer: 1.2 nM

Question: With Cn1c(N2CCC=C(c3ccc(F)cc3)C2)nc(-c2ccncc2)cc1=O [Compound A004, 2-[5-(4-fluorophenyl)-3,6-dihydro-2H-pyridin-1-yl]-3-methyl-6-pyridin-4-yl-3H-pyrimidin-4-one] as the compound, how does the IC50 read?
Answer: 13 nM

Question: Cn1c(N2CCC=C(c3ccc(F)cc3F)C2)nc(-c2ccncc2)cc1=O [Compound A012, 2-[5-(2,4-difluorophenyl)-3,6-dihydro-2H-pyridin-1-yl]-3-methyl-6-pyridin-4-yl-3H-pyrimidin-4-one] was tested. Which IC50 did it give?
Answer: 17 nM

Question: For COc1ccccc1C1=CCCN(c2nc(-c3ccncc3)cc(=O)n2C)C1 [Compound A020, 2-[5-(2-methoxyphenyl)-3,6-dihydro-2H-pyridin-1-yl]-3-methyl-6-pyridin-4-yl-3H-pyrimidin-4-one], which IC50 is on record?
Answer: 5 nM

Question: Which IC50 does the source give for COc1ccc(C2=CCCN(c3nc(-c4ccncc4)cc(=O)n3C)C2)cc1 [Compound A022, 2-[5-(4-methoxyphenyl)-3,6-dihydro-2H-pyridin-1-yl]-3-methyl-6-pyridin-4-yl-3H-pyrimidin-4-one] here?
Answer: 8.7 nM

Question: How did the IC50 turn out when COc1cccc(OC)c1C1=CCCN(c2nc(-c3ccncc3)cc(=O)n2C)C1 [Compound A026, 2-[5-(2,6-dimethoxyphenyl)-3,6-dihydro-2H-pyridin-1-yl]-3-methyl-6-pyridin-4-yl-3H-pyrimidin-4-one] was run?
Answer: 16 nM

Question: With Cn1c(N2CCC=C(c3ccccc3C(F)(F)F)C2)nc(-c2ccncc2)cc1=O [Compound A027, 2-[5-(2-trifluoromethylphenyl)-3,6-dihydro-2H-pyridin-1-yl]-3-methyl-6-pyridin-4-yl-3H-pyrimidin-4-one] as the compound, how does the IC50 read?
Answer: 31 nM

Question: For Cn1c(N2CCC=C(Cc3ccccc3)C2)nc(-c2ccncc2)cc1=O [Compound A050, 2-(5-benzyl-3,6-dihydro-2H-pyridin-1-yl)-3-methyl-6-pyridin-4-yl-3H-pyrimidin-4-one], which IC50 is on record?
Answer: 8 nM

Question: Cn1c(N2CCC=C(COc3ccc(F)cc3)C2)nc(-c2ccncc2)cc1=O [Compound A056, 2-[5-(4-fluorophenoxymethyl)-3,6-dihydro-2H-pyridin-1-yl]-3-methyl-6-pyridin-4-yl-3H-pyrimidin-4-one] was tested. Which IC50 did it give?
Answer: 27 nM

Question: For Cn1c(N2CCC=C(c3ccc(C(=O)N4CCCC4)cc3)C2)nc(-c2ccncc2)cc1=O [Compound A057, 2-[5-(4-pyrrolidinylcarbonylphenyl)-3,6-dihydro-2H-pyridin-1-yl]-3-methyl-6-pyridin-4-yl-3H-pyrimidin-4-one], which IC50 is on record?
Answer: 24 nM

Question: With Cn1c(N2CCC=C(c3ccccc3)C2)nc(-c2ccncn2)cc1=O [Compound B001, 2-(5-phenyl-3,6-dihydro-2H-pyridin-1-yl)-3-methyl-6-pyrimidin-4-yl-3H-pyrimidin-4-one] as the compound, how does the IC50 read?
Answer: 6.5 nM

Question: For Cn1c(N2CCC=C(c3ccccc3F)C2)nc(-c2ccncn2)cc1=O [Compound B002, 2-[5-(2-fluorophenyl)-3,6-dihydro-2H-pyridin-1-yl]-3-methyl-6-pyrimidin-4-yl-3H-pyrimidin-4-one], which IC50 is on record?
Answer: 1.1 nM

Question: How did the IC50 turn out when Cn1c(N2CCC=C(c3ccc(F)cc3)C2)nc(-c2ccncn2)cc1=O [Compound B004, 2-[5-(4-fluorophenyl)-3,6-dihydro-2H-pyridin-1-yl]-3-methyl-6-pyrimidin-4-yl-3H-pyrimidin-4-one] was run?
Answer: 6.3 nM

Question: Which IC50 does the source give for Cn1c(N2CCC=C(c3ccccc3Cl)C2)nc(-c2ccncn2)cc1=O [Compound B005, 2-[5-(2-chlorophenyl)-3,6-dihydro-2H-pyridin-1-yl]-3-methyl-6-pyrimidin-4-yl-3H-pyrimidin-4-one] here?
Answer: 0.38 nM

Question: Cn1c(N2CCC=C(c3ccc(F)cc3F)C2)nc(-c2ccncn2)cc1=O [Compound B012, 2-[5-(2,4-difluorophenyl)-3,6-dihydro-2H-pyridin-1-yl]-3-methyl-6-pyrimidin-4-yl-3H-pyrimidin-4-one] was tested. Which IC50 did it give?
Answer: 3.9 nM

Question: Cn1c(N2CCC=C(c3ccc(Cl)cc3Cl)C2)nc(-c2ccncn2)cc1=O [Compound B017, 2-[5-(2,4-dichlorophenyl)-3,6-dihydro-2H-pyridin-1-yl]-3-methyl-6-pyrimidin-4-yl-3H-pyrimidin-4-one] was tested. Which IC50 did it give?
Answer: 5.6 nM

Question: Which IC50 does the source give for COc1ccc(C2=CCCN(c3nc(-c4ccncn4)cc(=O)n3C)C2)cc1 [Compound B022, 2-[5-(4-methoxyphenyl)-3,6-dihydro-2H-pyridin-1-yl]-3-methyl-6-pyrimidin-4-yl-3H-pyrimidin-4-one] here?
Answer: 7.7 nM

Question: Which IC50 does the source give for COc1cccc(OC)c1C1=CCCN(c2nc(-c3ccncn3)cc(=O)n2C)C1 [Compound B026, 2-[5-(2,6-dimethoxyphenyl)-3,6-dihydro-2H-pyridin-1-yl]-3-methyl-6-pyrimidin-4-yl-3H-pyrimidin-4-one] here?
Answer: 2.4 nM

Question: With Cn1c(N2CCC=C(c3ccccc3C(F)(F)F)C2)nc(-c2ccncn2)cc1=O [Compound B027, 2-[5-(2-trifluoromethylphenyl)-3,6-dihydro-2H-pyridin-1-yl]-3-methyl-6-pyrimidin-4-yl-3H-pyrimidin-4-one] as the compound, how does the IC50 read?
Answer: 2.6 nM

Question: Which IC50 does the source give for Cn1c(N2CCC=C(c3ccccc3-c3ccccc3)C2)nc(-c2ccncn2)cc1=O [Compound B033, 2-(5-biphenyl-2-yl-3,6-dihydro-2H-pyridin-1-yl)-3-methyl-6-pyrimidin-4-yl-3H-pyrimidin-4-one] here?
Answer: 17 nM

Question: Which IC50 does the source give for Cn1c(N2CCC=C(c3ccsc3)C2)nc(-c2ccncn2)cc1=O [Compound B043, 2-(5-thiophen-3-yl-3,6-dihydro-2H-pyridin-1-yl)-3-methyl-6-pyrimidin-4-yl-3H-pyrimidin-4-one] here?
Answer: 17 nM

Question: With Cn1c(N2CCC=C(c3cccs3)C2)nc(-c2ccncn2)cc1=O [Compound B044, 2-(5-thiophen-2-yl-3,6-dihydro-2H-pyridin-1-yl)-3-methyl-6-pyrimidin-4-yl-3H-pyrimidin-4-one] as the compound, how does the IC50 read?
Answer: 9 nM

Question: Cn1c(N2CCC=C(c3noc4ccccc34)C2)nc(-c2ccncn2)cc1=O [Compound B049, 2-[5-(benzisoxazole-3-yl)-3,6-dihydro-2H-pyridin-1-yl]-3-methyl-6-pyrimidin-4-yl-3H-pyrimidin-4-one] was tested. Which IC50 did it give?
Answer: 5.1 nM

Question: For Cn1c(N2CCC=C(c3ccc(C(=O)N4CCCC4)cc3)C2)nc(-c2ccncn2)cc1=O [Compound B057, 2-[5-(4-pyrrolidinylcarbonylphenyl)-3,6-dihydro-2H-pyridin-1-yl]-3-methyl-6-pyrimidin-4-yl-3H-pyrimidin-4-one], which IC50 is on record?
Answer: 6.8 nM
